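Assay format: 96-well plates, 48-hour exposure. At the GI50, growth is halved.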 Activity calls are given as the source filed them. Cut-off read from the data, not from the text of the source: active = GI50 up to about 1.1 µM and inactive = higher.
Experiments:
Experiment in all cases: DTP human tumour cell line panel, 48 h
CCRF-CEM = test system: CCRF-CEM
EKVX = test system: EKVX
HCC 2998 = test system: HCC 2998
HCT-116 = test system: HCT-116
HCT-15 = test system: HCT-15
HT-29 = test system: HT-29
K562 = test system: K562
MOLT-4 = test system: MOLT-4
NCI-H460 = test system: NCI-H460
OVCAR-3 = test system: OVCAR-3
OVCAR-4 = test system: OVCAR-4
SF-295 = test system: SF-295
SK-MEL-28 = test system: SK-MEL-28
SK-MEL-2 = test system: SK-MEL-2
SR = test system: SR
UACC-257 = test system: UACC-257
UO-31 = test system: UO-31
SK-OV-3 = test system: SK-OV-3
SNB-19 = test system: SNB-19
SNB-75 = test system: SNB-75

Row | SMILES | GI50 (CCRF-CEM) | GI50 (EKVX) | GI50 (HCC 2998) | GI50 (HCT-116) | GI50 (HCT-15) | GI50 (HT-29) | GI50 (K562) | GI50 (MOLT-4) | GI50 (NCI-H460) | GI50 (OVCAR-3) | GI50 (OVCAR-4) | GI50 (SF-295) | GI50 (SK-MEL-28) | GI50 (SK-MEL-2) | GI50 (SR) | GI50 (UACC-257) | GI50 (UO-31) | GI50 (SK-OV-3) | GI50 (SNB-19) | GI50 (SNB-75)
1 | NCCNCc1c2ccccc2c(CNCCN)c2ccccc12 | 15.4 µM (inactive) | 20.2 µM (inactive) | 9.59 µM (inactive) | 5.18 µM (inactive) | 38 µM | 6.21 µM (inactive) | 7.59 µM (inactive) | 3.78 µM (inactive) | 6.97 µM (inactive) | 18.2 µM (inactive) | > 10 µM (inactive) | 17.4 µM (inactive) | > 10 µM (inactive) | 14.5 µM (inactive) | 4.18 µM (inactive) | 16.4 µM (inactive) | 49.4 µM (inactive) |  |  | 
2 | CC(C)(C)c1ccc2c(c1)OP1(Oc3cccc4cccnc34)(O2)Oc2ccc(C(C)(C)C)cc2O1 | 0.701 µM (active) | 3.08 µM (inactive) | 9.89 µM (inactive) | 3.13 µM (inactive) | 2.86 µM | 3.89 µM (inactive) | 2.43 µM (inactive) | 0.57 µM (active) | 3.04 µM (inactive) | 1.79 µM (inactive) | 2.48 µM (inactive) | 4.19 µM (inactive) | 15.7 µM (inactive) | 7.85 µM (inactive) |  | 2.54 µM (inactive) | 4.42 µM (inactive) | 48.2 µM (inactive) | 14.2 µM (inactive) | 15.7 µM (inactive)
3 | O=P(Nc1ccc(Cl)cc1)(Oc1ccccc1)N(CCCl)CCCl (configuration not stated) | > 100 µM (inactive) | > 100 µM (inactive) | > 100 µM (inactive) | > 100 µM (inactive) | > 100 µM | > 100 µM (inactive) | > 100 µM (inactive) | > 100 µM (inactive) |  | > 100 µM (inactive) | > 100 µM (inactive) | > 100 µM (inactive) | > 100 µM (inactive) | 35.5 µM (inactive) | > 100 µM (inactive) | > 100 µM (inactive) | > 100 µM (inactive) | > 100 µM (inactive) |  | 33.7 µM (inactive)
4 | C[C@]12CCC3[C@@H](C[C@H]4OC(=O)[C@@]35CCC(=O)C=C45)C1CCC2=O (some centres not stated) | > 100 µM (inactive) | > 100 µM (inactive) | > 100 µM (inactive) |  | > 100 µM | > 100 µM (inactive) | > 100 µM (inactive) | > 100 µM (inactive) | > 100 µM (inactive) | > 100 µM (inactive) |  | > 100 µM (inactive) | > 100 µM (inactive) | > 100 µM (inactive) | > 100 µM (inactive) | > 100 µM (inactive) | > 100 µM (inactive) | > 100 µM (inactive) | > 100 µM (inactive) | 
5 | O=C(NC(Cc1ccc(I)cc1)C(=O)O)c1cccc(Br)c1 (configuration not stated) | 69.2 µM (inactive) | > 61.7 µM (inactive) | 22.4 µM (inactive) | > 100 µM (inactive) | > 100 µM | > 100 µM (inactive) | 48.6 µM (inactive) | 33.7 µM (inactive) | 96.8 µM (inactive) | 54.6 µM (inactive) | > 92.9 µM (inactive) | > 100 µM (inactive) | 49.8 µM (inactive) | > 80.7 µM (inactive) |  | > 100 µM (inactive) | > 100 µM (inactive) | > 100 µM (inactive) | 99.1 µM (inactive) | 39.2 µM (inactive)
6 | CSc1nc(NC2OCC(O)C(O)C2O)c(N)c(=O)n1C (configuration not stated) | > 100 µM (inactive) | > 100 µM (inactive) | > 100 µM (inactive) | > 100 µM (inactive) | > 100 µM | > 100 µM (inactive) | > 100 µM (inactive) | > 100 µM (inactive) | > 100 µM (inactive) | > 100 µM (inactive) | > 100 µM (inactive) | > 100 µM (inactive) | > 100 µM (inactive) | > 100 µM (inactive) |  | > 100 µM (inactive) | > 85.5 µM (inactive) | > 100 µM (inactive) | > 100 µM (inactive) | 51.6 µM (inactive)
7 | CC(Oc1ccc(Cl)cc1Cl)C(=O)NN1C(=O)CC(=O)NC1=S (configuration not stated) |  | > 100 µM (inactive) | > 100 µM (inactive) | > 100 µM (inactive) | 86.9 µM | > 100 µM (inactive) | > 100 µM (inactive) |  | > 100 µM (inactive) | > 100 µM (inactive) | > 100 µM (inactive) | > 100 µM (inactive) | > 100 µM (inactive) | 80.5 µM (inactive) | > 100 µM (inactive) | > 100 µM (inactive) | > 100 µM (inactive) | > 100 µM (inactive) | > 100 µM (inactive) | > 100 µM (inactive)
8 | CC(C)(C)OC(=O)/C=C/C(=O)O/C=C/[N+](=O)[O-] | > 100 µM (inactive) | > 100 µM (inactive) | > 100 µM (inactive) | > 100 µM (inactive) | > 100 µM | > 100 µM (inactive) | 14.4 µM (inactive) |  | > 100 µM (inactive) | > 100 µM (inactive) |  | > 100 µM (inactive) |  |  | 18.2 µM (inactive) | > 100 µM (inactive) | > 100 µM (inactive) | > 100 µM (inactive) |  | > 100 µM (inactive)

— ChEMBL document CHEMBL1201862, “PubChem BioAssay data set” (2004)
